Legend:
Format in all cases: cell-based
PPAR γ = molecular target: T1, PPAR γ (Homo sapiens, UniProt P37231); assay: GAL4-hPPAR γ (LBD) luciferase reporter transactivation in CV-1 cells; details: test compound 10^−6 M, control Rosiglitazone 10^−5 M = 100%
T1 construct: A receptor expression plasmid (pSG5-GAL4-hPPAR α or γ or δ (LBD)); expressed in transfected cells; host or cells: CV-1 cells (ATCC)
T1 sequence (P37231 238-503 limits assumed): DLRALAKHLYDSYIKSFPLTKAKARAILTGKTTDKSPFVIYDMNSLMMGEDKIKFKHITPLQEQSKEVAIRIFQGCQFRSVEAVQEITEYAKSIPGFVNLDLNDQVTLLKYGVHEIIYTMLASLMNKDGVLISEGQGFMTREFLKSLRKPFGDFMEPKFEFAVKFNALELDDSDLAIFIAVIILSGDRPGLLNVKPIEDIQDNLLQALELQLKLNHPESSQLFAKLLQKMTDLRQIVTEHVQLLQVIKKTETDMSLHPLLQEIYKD
Procedure: (§1) A receptor expression plasmid (pSG5-GAL4-hPPAR α or γ or δ (LBD)), a luciferase expression plasmid (pUC8-MH100x-4-TK-Luc) and β-galactosidase expression plasmid (pCMX-β-GAL) (Kliewer, S. A., et. al., (1992) Nature, 358:771-774) are transfected into CV-1 cells (ATCC). After gene transfer utilizing a lipofection reagent DMRIE-C or Lipofectamin 2000 (Invitrogen), it is incubated for 42 hours in the presence of the test compound. Then, the luciferase activity and β-GAL activity are measured on the soluble cells. The luciferase activity is calibrated by the β-GAL activity. A relative ligand activity is calculated for each of the PPAR α, γ and δ under the following conditions: a relative activity of PPAR α is calculated in consideration of a luciferase activity (assigned to 100%) of cells treated with the compound GW-590735 (PPARα-selective agonist); a relative activity of PPAR γ is calculated in consideration of a luciferase activity (assigned to 100%) cells treated with Rosiglitazone; and a relative activity of PPAR δ is calculated in consideration of a luciferase activity (assigned to 100%) of cells treated with GW-501516. See the below-described Example 4.
(§2) The PPARδ activating effects of test compounds (compounds of Examples) were measured by the following method: […]
(§3) After gene transfer utilizing a lipofection reagent DMRIE-C or Lipofectamin 2000 (Invitrogen), it is incubated for approx. 40 hours in the presence of the test compound. Then, the luciferase activity and β-GAL activity are measured on the soluble cells. […] A relative ligand activity is calculated for each of the PPAR α, γ and δ under the following conditions: a relative activity of PPAR α is calculated in consideration of a luciferase activity (assigned to 100%) of cells treated with GW-590735 (PPARα-selective agonist); a relative activity of […] is calculated in consideration of a luciferase activity (assigned to 100%) cells treated with Rosiglitazone; and a relative activity of PPARδ is calculated in consideration of a luciferase activity (assigned to 100%) of cells treated with GW-501516.

PPAR δ = molecular target: T2, PPAR δ (Homo sapiens, UniProt Q03181); assay: GAL4-hPPAR δ (LBD) luciferase reporter transactivation in CV-1 cells; details: test compound 10^−6 M, control GW-501516 10^−7 M = 100%
T2 construct: A receptor expression plasmid (pSG5-GAL4-hPPAR α or γ or δ (LBD)); expressed in transfected cells; host or cells: CV-1 cells (ATCC)
T2 sequence (Q03181 211-439 limits assumed): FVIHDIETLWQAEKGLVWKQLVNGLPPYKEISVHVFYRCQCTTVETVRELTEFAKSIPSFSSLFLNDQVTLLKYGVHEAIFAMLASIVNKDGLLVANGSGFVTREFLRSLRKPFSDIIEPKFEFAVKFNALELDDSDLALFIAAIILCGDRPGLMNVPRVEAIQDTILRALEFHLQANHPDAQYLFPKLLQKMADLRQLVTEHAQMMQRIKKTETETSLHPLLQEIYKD
Procedure: as §1, §2, §3

PPAR α = molecular target: T3, PPAR α (Homo sapiens, UniProt Q07869); assay: GAL4-hPPAR α (LBD) luciferase reporter transactivation in CV-1 cells; details: test compound 10^−6 M, control GW-590735 10^−6 M = 100%
T3 construct: A receptor expression plasmid (pSG5-GAL4-hPPAR α or γ or δ (LBD)); expressed in transfected cells; host or cells: CV-1 cells (ATCC)
T3 sequence (Q07869 239-466 limits assumed): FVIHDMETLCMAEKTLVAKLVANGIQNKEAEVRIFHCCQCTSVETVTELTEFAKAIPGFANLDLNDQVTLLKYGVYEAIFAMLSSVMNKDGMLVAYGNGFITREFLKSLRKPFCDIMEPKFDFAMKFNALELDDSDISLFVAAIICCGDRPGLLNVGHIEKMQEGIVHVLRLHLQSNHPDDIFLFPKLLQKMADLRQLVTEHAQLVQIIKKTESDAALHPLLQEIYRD
Procedure: as §1, §2, §3

SMILES	PPAR γ activity: relative value (%) of the test compound to 100% of the control compound (PPAR γ) [%]	PPAR δ activity: relative value (%) of the test compound to 100% of the control compound (PPAR δ) [%]	PPAR α activity: relative value (%) of the test compound to 100% of the control compound (PPAR α) [%]
Cc1cc2c(CCc3cn(-c4ccc(C(F)(F)F)cc4)nc3C(C)C)noc2cc1OC(C)(C)C(=O)O [Example 3, 2-[3-[2-[3-Isopropyl-1-(4-trifluoromethylphenyl)-1H-pyrazol-4-yl]ethyl]-5-methylbenzisoxazol-6-yloxy]-2-methylpropionic acid]	0.3	87.8	0.2
Cc1cc2c(CCc3cc(-c4ccc(C(F)(F)F)cc4)nn3C(C)C)noc2cc1OC(C)(C)C(=O)O [Example 1, 2-[3-[2-[1-Isopropyl-3-(4-trifluoromethylphenyl)-1H-pyrazol-5-yl]ethyl]-5-methylbenzisoxazol-6-yloxy]-2-methylpropionic acid]	5.4	84.7	62.7
Cc1cc2c(CCc3cc(-c4ccc(C(F)(F)F)cc4)nn3C(C)C)noc2cc1OCC(=O)O [Example 2, 3-[2-[1-Isopropyl-3-(4-trifluoromethylphenyl)-1H-pyrazol-5-yl]ethyl]-5-methylbenzisoxazol-6-yloxyacetic acid]	13.4	94.4	103.0
